The results in this text go back to US9359298B2, “Cajanine structure analogous compound, preparation method and use” (INSTITUTE OF MEDICINAL BIOTECHNOLOGY, CHINESE ACADEMY OF …, priority 2011, dated 2016).

Converted amounts (≈) assume the structure as drawn.

Holding throughout (assay type): cell-based
In test [1] the test system is PC12 cells. In words: Neuroprotective activity assay, rotenone injury to PC12 cells (MTT). Conditions: for viability at 10 µM: Rattus norvegicus, PC-12, 48 h, 10 μM test compound, 4 μM rotenone, 48 h, Control 100.0 ± 8.9, Model 73.2 ± 7.8, read-out: rotenone (surviving PC12 cells, MTT 570 nm); for protective effect on rotenone injury to PC12 cells: statement in words. The gist of the method:
(§1)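 Survival measured as MTT absorbance at 570 nm after 4 h dye uptake. Compounds (10 μM) were co-applied for 48 h to PC12 cells deprived of serum or exposed to 4 μM rotenone, following 24 h seeding on poly-lysine.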

Test [2] has as its system HIV-1 III B virus. As to the kind of experiment: Anti-HIV activity assay (P24 antigen in MT-4 cells). Conditions: for IC50: Human immunodeficiency virus 1, MT4, 96 h, MT-4 cells, HIV-1 III B 100TCID50, 96 h, P24 antigen, read-out: HIV IC50; for anti-HIV viral activity: statement in words.
Test [3] deals with Influenza A virus (hanfang359/95). As to the kind of experiment: Determination of anti-influenza virus activity (CPE in MDCK cells). As to conditions: for IC50: Influenza A virus, MDCK, 36 h; for anti-influenza virus activities compared with the lead compound cajanine: statement in words.
The test system of test [4] is HCV. In words: Anti-hepatitis C virus (HCV) activity assay (HCV RNA in Huh7.5 cells). Conditions: for EC50: Hepatitis C virus, Huh7.5, 72 h, Huh7.5 cells, 72 h, HCV RNA by RT-PCR, Reed-Muench, read-out: HCV EC50; for anti-HCV viral activity: statement in words. The procedure: Inoculate Huh7.5 cells into 96-well plates to a density of 3×10^4 cells/cm^2, culture for 24h, infect the cells with 45 IU/cell HCV supernatant, meanwhile, add drug solutions or solvent control for treatment.

For test [5], the system named is Coxsackie virus B6. As to the kind of experiment: Coxsackie virus activity assay (CPE in Vero cells). Conditions: Vero, read-out: COX-B6 IC50, Vero cells, about 100TCID50, CPE, Reed-Muench.
The test system of test [6] is PC12 cells. In words: Neuroprotective activity assay, serum-deprived injury to PC12 cells (MTT). Conditions: for viability at 10 µM: Rattus norvegicus, PC-12, 48 h, 10 μM test compound, 48 h, Control 100.0 ± 9.2, Model 69.3 ± 4.1, read-out: serum-deprived (surviving PC12 cells, MTT 570 nm); for protective effect on serum-deprived injury to PC12 cells: statement in words. The gist of the method:
as §1

As for `COC(=O)c1c(/C=C/c2ccccc2)cc(OC)c(CC=C(C)C)c1O` [Compound 8, methyl 2-hydroxy-3-isopentenyl-4-methoxy-6-[(E)-styryl]-benzoate], the viability at 10 µM in test [1] was 78.9 ± 5.7%; in test [6] it was 76.6 ± 5.8%. Further, the values for the IC50 in test [2], in test [3] and in test [5] were 1.06 µg/mL (≈ 3.01 µM), 0.69 µg/mL (≈ 1.96 µM) and 3.56 µg/mL (≈ 10.1 µM), respectively. Further, the “anti-HIV viral activity” value in test [2] is “stronger anti-HIV, HCV viral activities”. Also, in test [4], the EC50 was determined as 0.79 µg/mL (≈ 2.24 µM). Further, the “anti-HCV viral activity” value in test [4] is recorded as “stronger anti-HIV, HCV viral activities”.
As for `COc1cc(/C=C/c2ccccc2)c(C(N)=O)c(O)c1CC=C(C)C` [Compound 32, 2-hydroxy-3-isopentenyl-4-methoxy-6-[(E)-styryl]benzamide], the viability at 10 µM in test [1] came to 92.3 ± 1.2%; in test [6], 94.5 ± 2.3%. Further, the “protective effect on rotenone injury to PC12 cells” value in test [1] was “the strongest activities”. The half-inhibitory concentration (IC50) is 0.16 µg/mL (≈ 0.474 µM) in test [2], 0.21 µg/mL (≈ 0.622 µM) in test [3] and 0.54 µg/mL (≈ 1.6 µM) in test [5]. Also, the “anti-influenza virus activities compared with the lead compound cajanine” value in test [3] is “significantly stronger than the lead compound cajanine”. The EC50 in test [4] is 1.37 µg/mL (≈ 4.06 µM). Besides, the “protective effect on serum-deprived injury to PC12 cells” value in test [6] is given as “the strongest activities”.
For `COC(=O)c1c(/C=C/c2cc(OC)cc(OC)n2)cc(OC)c(CC=C(C)C)c1O` [Compound 8x, methyl 2-hydroxy-3-isopentenyl-4-methoxy-6-[(E)-2-(4,6-dimethoxypyrid-2-yl)ethenyl]benzoate], the viability at 10 µM in test [1] is 76.5 ± 1.8%; in test [6], 79.8 ± 2.6%. Further, the 50% inhibitory concentration (IC50) in test [2] was determined as 0.79 µg/mL (≈ 1.91 µM); in test [3] it was 0.65 µg/mL (≈ 1.57 µM); in test [5], 4.58 µg/mL (≈ 11.1 µM). For the same compound, the “anti-influenza virus activities compared with the lead compound cajanine” value in test [3] is recorded as “significantly stronger than the lead compound cajanine”. Further, the EC50 in test [4] was determined as 1.87 µg/mL (≈ 4.52 µM).
As for `Oc1cc(O)cc(/C=C/c2ccc(O)c(O)c2)c1` [Compound 21e, 1,3-dihydroxy-5-[(E)-3,4-dihydroxystyryl]benzene], the viability at 10 µM in test [1] came to 87.4 ± 2.5%; in test [6], 85.6 ± 4.2%. The IC50 turned out to be 6.33 µg/mL (≈ 25.9 µM) in test [2], 2.38 µg/mL (≈ 9.74 µM) in test [3] and 4.86 µg/mL (≈ 19.9 µM) in test [5]. For the same compound, the EC50 in test [4] was found to be 2.06 µg/mL (≈ 8.43 µM).
`COc1cc(/C=C(\C)c2ccccc2)c(C(=O)O)c(O)c1CC=C(C)C` [Compound 1i, 2-hydroxy-3-isopentenyl-4-methoxy-6-[(E)-2-phenylpropen-1-yl]benzoic acid]: the values for the viability at 10 µM in test [1] and in test [6] were 55.1 ± 4.8% and 28.3 ± 7.6%, respectively. The IC50 in test [2] is 1.31 µg/mL (≈ 3.72 µM); in test [3] it was over 0.82 µg/mL; in test [5] it was 6.25 µg/mL (≈ 17.7 µM). Further, the “anti-HIV viral activity” value in test [2] is reported as “stronger anti-HIV, HCV viral activities”. The EC50 in test [4] was 0.59 µg/mL (≈ 1.67 µM). The “anti-HCV viral activity” value in test [4] is “stronger anti-HIV, HCV viral activities”.
With `COC(=O)c1c(/C=C/c2cccc(OC)n2)cc(OC)c(CC=C(C)C)c1O` [Compound 8y, methyl 2-hydroxy-3-isopentenyl-4-methoxy-6-[(E)-2-(6-methoxy-pyrid-2-yl)ethenyl]benzoate], the viability at 10 µM in test [1] was 48.9 ± 6.5%; in test [6], 49.8 ± 2.6%. Also, the IC50 turned out to be 6.8 µg/mL (≈ 17.7 µM) in test [2], 2.14 µg/mL (≈ 5.58 µM) in test [3] and 7.12 µg/mL (≈ 18.6 µM) in test [5]. Also, the EC50 in test [4] was determined as 4.33 µg/mL (≈ 11.3 µM).
For the compound `COc1cc(/C=C/c2ccccc2)c(C(=O)O)c(OC(=N)N)c1CC=C(C)C` [Compound 27b, 2-iso-ureido-3-isopentenyl-4-methoxy-6-[(E)-styryl]benzoic acid], the viability at 10 µM in test [1] amounted to 92.3 ± 2.6%; in test [6], 91.5 ± 6.1%. In test [1], the “protective effect on rotenone injury to PC12 cells” value was “the strongest activities”. Further, the figures for the IC50 in test [2], in test [3] and in test [5] were 4.91 µg/mL (≈ 12.9 µM), 2.14 µg/mL (≈ 5.63 µM) and 1.24 µg/mL (≈ 3.26 µM), respectively. The EC50 in test [4] worked out at 1.83 µg/mL (≈ 4.81 µM). In addition, the “protective effect on serum-deprived injury to PC12 cells” value in test [6] is listed as “the strongest activities”.

As a reminder, the IC50 is the concentration that gives 50% inhibition. As a reminder, the EC50 is the concentration giving half of the maximal effect.
